Measured values taken from US7141397B2, “Method of preparing a guanosine-group compound and an intermediate thereof” (Yuki Gosei Kogyo Co., Ltd., priority 2000, dated 2006).

Test: Solubility of guanine and glyoxal-guanine in water (HPLC of liquid layer)
Type: physicochemical
Settings: for solubility to water: general statement, no temperature given; for Solubility at each temperature: water, stirred 1 hour
Method: An excess amount of each compound was suspended in water, stirred for 1 hour at each temperature and left for a while. The liquid layer was analyzed with HPLC equipped with a UV detector, under the conditions described below.
Conditions of the HPLC analysis:
Column: Superiorex ODS (manufactured by Shiseido)
Eluent: 0.1 M ammonium dihydrogenphosphate solution: methanol=97:3 (v/v)

| SMILES | solubility to water | Solubility at each temperature (30° C.) | Solubility at each temperature (40° C.) | Solubility at each temperature (50° C.) [mg/kg] | Solubility at each temperature (60° C.) [mg/kg] |
| --- | --- | --- | --- | --- | --- |
| O=c1c2nc[nH]c2nc2n1C(O)C(O)N2 (stereo not shown) [Glyoxal-guanine, 6,7-dihydro-6,7-dihydroxyimidazo[1,2-a]purine-9(3H)-one] | soluble to water | 200 mg/kg | 275 mg/kg | 330 | 440 |
| Nc1nc2nc[nH]c2c(=O)[nH]1 [Guanine, guanine] | does not exceed a few ppm | ≤ 2 or mg/kg | ≤ 2 or mg/kg | 2 | 2 |
